Reference: patent US11136313B2, “Compounds, compositions, and methods for modulating CFTR” (Proteostasis Therapeutics, Inc., priority 2015, dated 2021)

target: T1, ΔF508-CFTR (Homo sapiens, UniProt P13569, DEL508-508); assay: hBE equivalent current (Ieq) assay: AUC of equivalent chloride current after forskolin/VX-770 in primary lung epithelial cells homozygous for ΔF508; assay type: cell-based; conditions: relative to CFTR amplifier (Compound A)+VX-809 (3 uM), compound at 10 uM and Compound A at 3 uM, 24 h treatment
T1 construct: Primary lung epithelial cells homozygous for the Cystic Fibrosis-causing ΔF508 mutation were differentiated for a minimum of 4 weeks; endogenous in cells; host or cells: primary lung epithelial cells (hBE) homozygous for ΔF508, differentiated at an air-liquid interface
T1 sequence (P13569 with tags, fused parts or gaps DEL508-508): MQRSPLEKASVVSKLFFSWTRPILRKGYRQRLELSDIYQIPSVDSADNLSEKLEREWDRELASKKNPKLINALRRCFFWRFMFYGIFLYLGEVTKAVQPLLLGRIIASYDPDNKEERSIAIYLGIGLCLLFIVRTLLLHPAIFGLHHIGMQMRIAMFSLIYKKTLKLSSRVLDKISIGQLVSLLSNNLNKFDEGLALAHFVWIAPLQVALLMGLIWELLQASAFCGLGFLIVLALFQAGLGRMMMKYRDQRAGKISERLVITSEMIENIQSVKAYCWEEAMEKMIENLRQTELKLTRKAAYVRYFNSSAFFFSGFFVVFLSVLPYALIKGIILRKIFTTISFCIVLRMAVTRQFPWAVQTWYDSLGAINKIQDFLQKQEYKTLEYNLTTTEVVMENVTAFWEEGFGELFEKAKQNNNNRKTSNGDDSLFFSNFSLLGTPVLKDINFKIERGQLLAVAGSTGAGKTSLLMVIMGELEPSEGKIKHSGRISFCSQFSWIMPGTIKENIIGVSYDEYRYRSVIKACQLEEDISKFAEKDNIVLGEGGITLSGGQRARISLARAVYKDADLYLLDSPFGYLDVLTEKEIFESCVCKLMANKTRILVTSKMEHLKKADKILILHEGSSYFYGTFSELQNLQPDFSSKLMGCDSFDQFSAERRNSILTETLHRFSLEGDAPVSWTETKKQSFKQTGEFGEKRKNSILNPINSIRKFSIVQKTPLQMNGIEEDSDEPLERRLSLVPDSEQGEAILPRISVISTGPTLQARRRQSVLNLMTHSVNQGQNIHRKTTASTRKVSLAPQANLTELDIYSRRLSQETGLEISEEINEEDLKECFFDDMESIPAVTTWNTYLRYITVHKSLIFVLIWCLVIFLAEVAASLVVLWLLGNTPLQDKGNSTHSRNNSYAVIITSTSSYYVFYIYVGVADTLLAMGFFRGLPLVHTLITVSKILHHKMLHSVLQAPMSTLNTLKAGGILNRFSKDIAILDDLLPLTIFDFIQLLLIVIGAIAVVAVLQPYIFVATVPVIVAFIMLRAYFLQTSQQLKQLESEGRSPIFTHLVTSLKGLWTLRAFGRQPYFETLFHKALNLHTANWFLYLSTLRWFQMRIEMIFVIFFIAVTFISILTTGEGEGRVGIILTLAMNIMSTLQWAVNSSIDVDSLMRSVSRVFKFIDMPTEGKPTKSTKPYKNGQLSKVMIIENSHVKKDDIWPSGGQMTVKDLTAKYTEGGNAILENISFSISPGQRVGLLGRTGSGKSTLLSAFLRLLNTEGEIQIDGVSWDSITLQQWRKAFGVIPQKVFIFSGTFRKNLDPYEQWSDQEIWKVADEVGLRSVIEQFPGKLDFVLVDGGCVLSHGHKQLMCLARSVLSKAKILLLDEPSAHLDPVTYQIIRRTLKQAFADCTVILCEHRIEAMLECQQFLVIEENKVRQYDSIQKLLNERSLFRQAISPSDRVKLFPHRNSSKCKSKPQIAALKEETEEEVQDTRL
In short: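 Readout is the increase over vehicle in equivalent chloride current AUC from forskolin/VX-770 addition to bumetanide, measured by current clamp at 36 °C after benzamil block of ENaC. Cultures were homozygous ΔF508 primary lung epithelium grown ≥4 weeks at air-liquid interface and exposed basolaterally to compound for 24 h.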

Structure (SMILES) | Activity
CCc1ccc(OCc2ccccc2)c2c(C(=O)O)cc(-c3c(C)oc4ccccc34)nc12 [Compound 175] | ++ (activity>50% of CFTR amplifier+VX-809 (3 uM) with compound at 10 uM and Compound A at 3 uM)
CCc1ccc(OC2CCCCC2)c2c(C(=O)O)cc(-c3c(C)oc4ccccc34)nc12 [Compound 176] | ++ (activity>50% of CFTR amplifier+VX-809 (3 uM) with compound at 10 uM and Compound A at 3 uM)
CCc1cc(C(C)(C)C)cc2c(C(=O)O)cc(-c3c(C)oc4ccccc34)nc12 [Compound 178, 6-tert-Butyl-8-ethyl-2-(2-methyl-1-benzofuran-3-yl)quinoline-4-carboxylic acid] | ++ (activity>50% of CFTR amplifier+VX-809 (3 uM) with compound at 10 uM and Compound A at 3 uM)
CCc1ccc(COc2ccccc2)c2c(C(=O)O)cc(-c3csc4ccccc34)nc12 [Compound 180] | ++ (activity>50% of CFTR amplifier+VX-809 (3 uM) with compound at 10 uM and Compound A at 3 uM)
CCc1ccc(O[C@H]2CCC[C@@H](C)C2)c2c(C(=O)O)cc(-c3csc4ccccc34)nc12 [Compound 181, 2-(1-Benzothiophen-3-yl)-8-ethyl-5-[[(1S,3R)-3-methylcyclohexyl]oxy]quinoline-4-carboxylic Acid] | ++ (activity>50% of CFTR amplifier+VX-809 (3 uM) with compound at 10 uM and Compound A at 3 uM)
CCc1ccc(O[C@@H]2CCC[C@H](C)C2)c2c(C(=O)O)cc(-c3csc4ccccc34)nc12 [Compound 182, 2-(Benzo[b]thiophen-3-yl)-8-ethyl-5-(((1R,3S)-3-methylcyclohexyl)oxy)quinoline-4-carboxylic Acid] | ++ (activity>50% of CFTR amplifier+VX-809 (3 uM) with compound at 10 uM and Compound A at 3 uM)
CCc1ccc(O[C@@H]2CCC[C@@H](C)C2)c2c(C(=O)O)cc(-c3csc4ccccc34)nc12 [Compound 184, 2-(Benzo[b]thiophen-3-yl)-8-ethyl-5-(((1R,3R)-3-methylcyclohexyl)oxy)quinoline-4-carboxylic Acid] | ++ (activity>50% of CFTR amplifier+VX-809 (3 uM) with compound at 10 uM and Compound A at 3 uM)
CCc1ccc(OCc2cccc(C)c2)c2c(C(=O)O)cc(-c3csc4ccccc34)nc12 [Compound 188] | ++ (activity>50% of CFTR amplifier+VX-809 (3 uM) with compound at 10 uM and Compound A at 3 uM)
CCc1ccc(OCc2ccc(C)cc2)c2c(C(=O)O)cc(-c3csc4ccccc34)nc12 [Compound 189] | ++ (activity>50% of CFTR amplifier+VX-809 (3 uM) with compound at 10 uM and Compound A at 3 uM)
CCc1ccc(OCc2ccc(-c3cnccn3)cc2)c2c(C(=O)O)cc(-c3csc4ccccc34)nc12 [Compound 192, 2-(1-Benzothiophen-3-yl)-8-ethyl-5-[[4-(pyrazin-2-yl)phenyl]methoxy]quinoline-4-carboxylic acid] | ++ (activity>50% of CFTR amplifier+VX-809 (3 uM) with compound at 10 uM and Compound A at 3 uM)
CCc1ccc(OCc2cccc(-c3cccnc3)c2)c2c(C(=O)O)cc(-c3csc4ccccc34)nc12 [Compound 194] | + (activity<50% of an CFTR amplifier (Compound A)+VX-809 (3 uM) with compound at 10 uM and Compound A at 3 uM)
CCc1ccc(OCc2ccc(-c3cccnc3)cc2)c2c(C(=O)O)cc(-c3csc4ccccc34)nc12 [Compound 195] | ++ (activity>50% of CFTR amplifier+VX-809 (3 uM) with compound at 10 uM and Compound A at 3 uM)
Cc1c(-c2cc(C(=O)O)c3c(O[C@H]4CC[C@@H](c5ncco5)CC4)ccc(C)c3n2)oc2ccccc12 [Compound 196] | ++ (activity>50% of CFTR amplifier+VX-809 (3 uM) with compound at 10 uM and Compound A at 3 uM)
Cc1c(-c2cc(C(=O)O)c3c(O[C@H]4CC[C@H](c5ncco5)CC4)ccc(C)c3n2)oc2ccccc12 [Compound 197] | ++ (activity>50% of CFTR amplifier+VX-809 (3 uM) with compound at 10 uM and Compound A at 3 uM)
Cc1ccc(O[C@H](C)c2ccccc2)c2c(C(=O)[O-])cc(-c3nc4ccccn4c3C)nc12.[Na+] [Compound 200] | + (activity<50% of an CFTR amplifier (Compound A)+VX-809 (3 uM) with compound at 10 uM and Compound A at 3 uM)
Cc1ccc(O[C@@H](C)c2ccccc2)c2c(C(=O)[O-])cc(-c3nc4ccccn4c3C)nc12.[Na+] [Compound 201] | ++ (activity>50% of CFTR amplifier+VX-809 (3 uM) with compound at 10 uM and Compound A at 3 uM)

Structure (SMILES) | Activity
Cc1ccc(O[C@H](C)c2ccccc2)c2c(C(=O)[O-])cc(-c3cn4ccccc4n3)nc12.[Na+] [Compound 202, Sodium 2-[Imidazo[1,2-a]pyridin-2-yl]-8-methyl-5-[(1R)-1-phenylethoxy]quinoline-4-carboxylate] | + (activity<50% of an CFTR amplifier (Compound A)+VX-809 (3 uM) with compound at 10 uM and Compound A at 3 uM)
Cc1ccc(O[C@@H](C)c2ccccc2)c2c(C(=O)[O-])cc(-c3cn4ccccc4n3)nc12.[Na+] [Compound 203, Sodium 2-[Imidazo[1,2-a]pyridin-2-yl]-8-methyl-5-[(1S)-1-phenylethoxy]quinoline-4-carboxylate] | + (activity<50% of an CFTR amplifier (Compound A)+VX-809 (3 uM) with compound at 10 uM and Compound A at 3 uM)
Cc1ccc(O[C@H](C)c2ccccc2)c2c(C(=O)[O-])cc(-c3cc4ccccn4n3)nc12.[Na+] [Compound 208] | ++ (activity>50% of CFTR amplifier+VX-809 (3 uM) with compound at 10 uM and Compound A at 3 uM)
Cc1ccc(O[C@@H](C)c2ccccc2)c2c(C(=O)[O-])cc(-c3cc4ccccn4n3)nc12.[Na+] [Compound 209] | + (activity<50% of an CFTR amplifier (Compound A)+VX-809 (3 uM) with compound at 10 uM and Compound A at 3 uM)
Cc1c(-c2cc(C(=O)[O-])c3c(O[C@H](C)c4ccccc4)ccc(C)c3n2)oc2ccccc12.[Na+] [Compound 212] | ++ (activity>50% of CFTR amplifier+VX-809 (3 uM) with compound at 10 uM and Compound A at 3 uM)
Cc1c(-c2cc(C(=O)[O-])c3c(O[C@@H](C)c4ccccc4)ccc(C)c3n2)oc2ccccc12.[Na+] [Compound 213] | ++ (activity>50% of CFTR amplifier+VX-809 (3 uM) with compound at 10 uM and Compound A at 3 uM)
CCc1ccc(O[C@@H]2CCC[C@H](C)C2)c2c(C(=O)[O-])cc(-c3sc4ccccc4c3C)nc12.[Na+] [Compound 214, Sodium 8-Ethyl-2-(3-methyl-1-benzothiophen-2-yl)-5-[[(1R,3S)-3-methylcyclohexyl]oxy]quinoline-4-carboxylate] | ++ (activity>50% of CFTR amplifier+VX-809 (3 uM) with compound at 10 uM and Compound A at 3 uM)
CCc1ccc(O[C@H]2CCC[C@@H](C)C2)c2c(C(=O)[O-])cc(-c3sc4ccccc4c3C)nc12.[Na+] [Compound 215, Sodium 8-Ethyl-2-(3-methyl-1-benzothiophen-2-yl)-5-[[(1S,3R)-3-methylcyclohexyl]oxy]quinoline-4-carboxylate] | ++ (activity>50% of CFTR amplifier+VX-809 (3 uM) with compound at 10 uM and Compound A at 3 uM)
CCc1ccc(O[C@H]2CCC[C@H](C)C2)c2c(C(=O)[O-])cc(-c3sc4ccccc4c3C)nc12.[Na+] [Compound 216, Sodium 8-Ethyl-2-(3-methyl-1-benzothiophen-2-yl)-5-[[(1S,3S)-3-methylcyclohexyl]oxy]quinoline-4-carboxylate] | ++ (activity>50% of CFTR amplifier+VX-809 (3 uM) with compound at 10 uM and Compound A at 3 uM)
CCc1ccc(O[C@@H]2CCC[C@@H](C)C2)c2c(C(=O)[O-])cc(-c3sc4ccccc4c3C)nc12.[Na+] [Compound 217, Sodium 8-Ethyl-2-(3-methyl-1-benzothiophen-2-yl)-5-[[(1R,3R)-3-methylcyclohexyl]oxy]quinoline-4-carboxylate] | ++ (activity>50% of CFTR amplifier+VX-809 (3 uM) with compound at 10 uM and Compound A at 3 uM)
Cc1c(-c2cc(C(=O)[O-])c3c(O[C@@H]4CCC[C@H](C)C4)ccc(C)c3n2)sc2ccccc12.[Na+] [Compound 218, Sodium 8-Methyl-2-(3-methyl-1-benzothiophen-2-yl)-5-[[(1R,3S)-3-methylcyclohexyl]oxy]quinoline-4-carboxylate] | ++ (activity>50% of CFTR amplifier+VX-809 (3 uM) with compound at 10 uM and Compound A at 3 uM)
Cc1c(-c2cc(C(=O)[O-])c3c(O[C@H]4CCC[C@@H](C)C4)ccc(C)c3n2)sc2ccccc12.[Na+] [Compound 219, Sodium 8-Methyl-2-(3-methyl-1-benzothiophen-2-yl)-5-[[(1S,3R)-3-methylcyclohexyl]oxy]quinoline-4-carboxylic acid] | ++ (activity>50% of CFTR amplifier+VX-809 (3 uM) with compound at 10 uM and Compound A at 3 uM)
Cc1c(-c2cc(C(=O)[O-])c3c(O[C@H]4CCC[C@H](C)C4)ccc(C)c3n2)sc2ccccc12.[Na+] [Compound 220, Sodium 8-Methyl-2-(3-methyl-1-benzothiophen-2-yl)-5-[[(1S,3S)-3-methylcyclohexyl]oxy]quinoline-4-carboxylate] | ++ (activity>50% of CFTR amplifier+VX-809 (3 uM) with compound at 10 uM and Compound A at 3 uM)
Cc1ccc([C@H](C)Oc2ccc(C)c3nc(-c4sc5ccccc5c4C)cc(C(=O)[O-])c23)cc1.[Na+] [Compound 227, Sodium 8-Methyl-2-(3-methyl-1-benzothiophen-2-yl)-5-[(1S)-1-(4-methylphenyl)ethoxy]quinoline-4-carboxylate] | ++ (activity>50% of CFTR amplifier+VX-809 (3 uM) with compound at 10 uM and Compound A at 3 uM)
Cc1c(-c2cc(C(=O)[O-])c3c(O[C@H](C)c4ccc(S(C)(=O)=O)cc4)ccc(C)c3n2)oc2ccccc12.[Na+] [Compound 229, Sodium 5-[(1R)-1-(4-methanesulfonylphenyl)ethoxy]-8-methyl-2-(3-methyl-1-benzofuran-2-yl)quinoline-4-carboxylate] | ++ (activity>50% of CFTR amplifier+VX-809 (3 uM) with compound at 10 uM and Compound A at 3 uM)
